In assay [1] the test system is SNU449 human liver cancer cells. The experiment in a line: Reactivity of M2 variants in SNU449. It is filed as cell-based. Here is the method: (§1) To examine the ability of the compound to inhibit the growth of the breast cancer cell line, the compounds was treated at each indicated μM concentration 1 and 3 days after cell attachment, and the control was treated with a 0.1% solvent (DMSO). After another two days, the cell lines that were attached to the culture plate and grew were rinsed with 1×PBS and treated with 4% paraformaldehyde at room temperature for 10 minutes to fix the cells. Then, after cells were rinsed twice with PBS, the fixed cells were treated with a 0.5% Triton X-100 solution and reacted at room temperature for 15 minutes, rinsed another three times with PBS, and then treated with a DAPI reagent at 0.5 μg/ml, and reacted at 37° C. for 10 minutes to stain the cell nuclei. After the cells were additionally rinsed once with PBS, cells stained with DAPI were photographed by Cytation 3, and the resulting images were analyzed with Gen5 software (Biotek, USA). Meanwhile, cells that grew in a floating manner without being attached to the culture plate were treated with a 4% paraformaldehyde solution, reacted at room temperature for 10 minutes to fix the cells, and then photographed in a bright field by Cytation3, and the resulting images were analyzed by Gen5 software (Biotek, USA).
To analyze the ability to inhibit the growth of liver cancer cell lines, 6.6×10^3 HepG2 cells per well, 1×10^3 cells of each of Hep3B, SNU-475, and SNU-449 per well, and 2×10^3 SNU-387 cells per well were aliquoted in a 96-well plate, cultured in the same manner as described above, treated with Compound 2 (M2), Compound 3 (M4), Compound 4 (M21), Compound 5 (M23), and Compound 6 (M25), and then the ability to inhibit the growth of cells was analyzed.

Assay [2] relates to NCAPG2 in HEK293 cell line. Description: Staining of NCAPG2 in chromosome arm and kinetochore. It is filed as cell-based. Particulars: HEK293, 50 uM, 24 hours, compared to the control.
For assay [3], the system named is JIMT1 human breast cancer cells. The experiment in a line: Cancer cell growth inhibition, M2 variants in JIMT1. It is filed as cell-based. Here is the method:
as §1

For assay [4], the system named is PLK1. Description: PLK1 position in the cell (r-tubulin, PLK1, DAPI staining). Particulars: middle stage of cell division. It is filed as cell-based.
The subject of assay [5] is HepG2 cell. The experiment in a line: Apoptosis by annexin V-FITC / PI flow cytometry. It is filed as cell-based. Particulars: HepG2, 3 days; M2 20 or 100 μM; BI2536 20 or 100 nM. As for the experimental part:
To analyze the pattern of apoptosis by exposure to M2, HepG2 cell, a hepatocellular carcinoma cell line, were treated with 20 or 100 μM M2 and 20 or 100 nM BI2536 for 3 days. The apoptosis was detected by annexin V-fluorescein isothiocyanate (annexin V-FITC) and propidium iodide (PI) staining of necrotic and apoptosis cells. First, cells were harvested and washed once with PBS. The cells were then resuspended in a 100 μl binding buffer containing 4 μl of Annexin V (BD, 51-65874X) and PI (BD, 51-66211E). The cells were stained at 37° C. for 15 minutes in the dark and then analyzed using FACSan (BD, San Jose, Calif.). Data was analyzed using CELLQuest software (BD).

Assay [6] has as its system liver cancer cell lines. The experiment in a line: Mixed treatment of Compound 2 (M2) and BI2536. It is filed as cell-based. Particulars: mixture of Compound 2 (M2) at a low concentration and BI2536.
Assay [7] relates to human liver cancer PDX. Description: Orthotopic xenograft model using human liver cancer PDX. Particulars: M2 40 mg/kg i.p. once every two days, 11 treatments for 3 weeks. It is filed as in vivo, BalB/C nude mice. As for the experimental part:
A cancer tissue isolated from human liver cancer was transplanted into skin tissues of BalB/C nude mice and the skin tissues were grown into cancer tissues, so that a tissue established as a PDX model was used, uniformly cut into 1 mm^3, and transplanted into the right median lobe of the liver by excising the abdomen within 1 cm. Sm all spots were confirmed on the MRI image about 10 days after transplanting the liver cancer tissue into 20 BalB/C nude mice by the above method, so that rodents with well-established liver cancer were divided into 3 groups (see FIGS. 22A, 22B, and 22C), a solvent control (DMSO), a hit (M2) material at 40 mg/kg, and BI2536 at 4 mg/kg were injected into the abdominal cavity once every two days using less than 1.5% DMSO as a solvent (vehicle), and once a week, MRI images were used to select (follow up) rodents with constant tissue growth. Then, when the rapidly growing cancer tissue was 1 cm or less, the cancer tissue was observed after sacrificing the mice (11 treatments for 3 weeks).

Assay [8] has as its system MDA-MB-468 cells. The experiment in a line: Cancer cell growth inhibition (DAPI nuclei count), breast cancer line. It is filed as cell-based. Particulars: treated 1 and 3 days after attachment. Here is the method: For this purpose, experiments were performed using liver cancer, breast cancer, hematologic cancer, cervical cancer, and prostate cancer cell lines, a murine liver cancer cell line HEPA 1-6 and a breast cancer cell line MDA-MB-468 were cultured in a DMEM medium supplemented with 10% fetal bovine serum (FBS) and 1% penicillin/streptomycin, the other cell lines were cultured in a RPMI1640 medium supplemented with the same additives, and the cell lines were used in the experiment.
To examine the ability of the compound to inhibit the growth of the breast cancer cell line, the compounds was treated at each indicated μM concentration 1 and 3 days after cell attachment, and the control was treated with a 0.1% solvent (DMSO). […] After the cells were additionally rinsed once with PBS, cells stained with DAPI were photographed by Cytation 3, and the resulting images were analyzed with Gen5 software (Biotek, USA). Meanwhile, cells that grew in a floating manner without being attached to the culture plate were treated with a 4% paraformaldehyde solution, reacted at room temperature for 10 minutes to fix the cells, and then photographed in a bright field by Cytation3, and the resulting images were analyzed by Gen5 software (Biotek, USA). […]

The test system of assay [9] is HepG2 orthotopic xenograft. The experiment in a line: Liver cancer orthotopic xenograft model (HepG2), 19 injections. The format is in vivo, BalB/c nude mice. Particulars: M2 9.1 mg/kg. Here is the method: 5×10^6 HepG2 cells, which are a hepatocellular carcinoma cell line, were injected into the back skin of BalB/c nude mice, and when a sufficient cancer tissue was formed about 3 weeks later, the tissue was removed, uniformly cut into 1 mm^3, and transplanted into the right median lobe of the liver by excising the abdomen within 1 cm.
The doses of 9.1 mg/kg of M2 and 1 mg/kg of BI2536 were selected based on the present inventor's previous in vitro experiments on HCC cells. Administration began 7 days after cell injection, and an equivalent amount of DMSO for the highest concentration of drug was used as a solvent control for each experiment. Each drug was injected a total of 19 injections based on 5 times/week.

Take `Cn1c2nc(=O)[nH]c(=O)c-2nc2ccccc21` [Compound 2, 10-methyl-2H,3H,4H,10H-benzo[g]pteridine-2,4-dione]: the “number of cancer cells” value in [1] is on record as “the number of cancer cells was remarkably reduced in a dose-dependent manner”. Further, the “degree of staining of NCAPG2 in the chromosome arm and kinetochore” value in assay [2] was “reduced”. Moreover, the “number of cancer cells” value in assay [3] is reported as “remarkably reduced the number of cancer cells in a dose-dependent manner”. In assay [4], the “position of PLK1” value is “difficult for PLK1 to be located in a normal position” and the “r-tubulin located in the centrosome (staining / position)” value is recorded as “weakly stained”. In assay [5], the apoptosis cells entry is on record as “apoptosis cells were increased” and the “apoptosis with increasing dose” value was “apoptosis was increased in a dose-dependent manner”. The “inhibition of cancer cells by mixed treatment” value in assay [6] is recorded as “the cooperative ability of BI2536 to inhibit cancer cells could be observed”. Moreover, in assay [7], the “volume of the cancer tissue” value is “reduced remarkably” and the “weight of the cancer tissue” value is on record as “reduced remarkably”. The number of cells entry in assay [8] is “the number of cells was remarkably reduced in proportion to the treatment concentration”. Besides, the “progression of the HCC xenograft calculated by the growth inhibition index” value in assay [9] (BI2536 1 mg/kg, 19 injections) was “suppressed the progression of the HCC xenograft”. Moreover, the “growth of tumor cells (macroscopic morphology, MRI)” value in [9] (BI2536 1 mg/kg, 19 injections, 5 times/week) is on record as “the growth of tumor cells was suppressed”. Besides, in assay [9] (histological staining, compared to the control), the mitotic index result is recorded as “decreased”.

Values taken from patent publication US20220033405A1, “PHARMACEUTICAL COMPOSITION FOR PREVENTING OR TREATING CANCER CONTAINING PLK1 INHIBITOR AS ACTIVE INGREDIENT” (NATIONAL CANCER CENTER, priority 2018, published 2022).
